Reference: ChEMBL document CHEMBL5303761, “Data for DCP probe BI-3231” (2023)

Legend:
[1] = target: Prostaglandin G/H synthase 2 (Homo sapiens) (UniProt P35354); test: COX-2 Eurofins SafetyScreen44 (BI); settings: Compound concentration 10.0 uM
[2] = target: T1, 5-hydroxytryptamine receptor 1A (Homo sapiens) (UniProt P08908); test: 5HT1A/H Eurofins SafetyScreen44 (BI); settings: Compound concentration 10.0 uM
T1 sequence (whole entry): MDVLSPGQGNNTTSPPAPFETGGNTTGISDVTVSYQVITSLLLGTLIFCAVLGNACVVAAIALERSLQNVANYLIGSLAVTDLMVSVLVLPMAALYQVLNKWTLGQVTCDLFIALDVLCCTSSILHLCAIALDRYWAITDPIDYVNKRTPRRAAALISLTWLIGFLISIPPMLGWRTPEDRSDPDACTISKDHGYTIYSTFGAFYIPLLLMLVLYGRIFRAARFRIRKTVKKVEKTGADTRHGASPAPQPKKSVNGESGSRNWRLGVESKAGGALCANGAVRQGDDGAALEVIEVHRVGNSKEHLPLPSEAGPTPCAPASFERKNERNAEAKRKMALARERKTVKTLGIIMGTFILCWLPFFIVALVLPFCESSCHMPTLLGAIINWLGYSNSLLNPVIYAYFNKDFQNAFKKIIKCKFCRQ

[3] = target: T2, Alpha-1A adrenergic receptor (Homo sapiens) (UniProt P35348); test: ALPHA1AH_ANTAG Eurofins SafetyScreen44 (BI); settings: filed as antagonist, Compound concentration 10.0 uM
T2 sequence (whole entry): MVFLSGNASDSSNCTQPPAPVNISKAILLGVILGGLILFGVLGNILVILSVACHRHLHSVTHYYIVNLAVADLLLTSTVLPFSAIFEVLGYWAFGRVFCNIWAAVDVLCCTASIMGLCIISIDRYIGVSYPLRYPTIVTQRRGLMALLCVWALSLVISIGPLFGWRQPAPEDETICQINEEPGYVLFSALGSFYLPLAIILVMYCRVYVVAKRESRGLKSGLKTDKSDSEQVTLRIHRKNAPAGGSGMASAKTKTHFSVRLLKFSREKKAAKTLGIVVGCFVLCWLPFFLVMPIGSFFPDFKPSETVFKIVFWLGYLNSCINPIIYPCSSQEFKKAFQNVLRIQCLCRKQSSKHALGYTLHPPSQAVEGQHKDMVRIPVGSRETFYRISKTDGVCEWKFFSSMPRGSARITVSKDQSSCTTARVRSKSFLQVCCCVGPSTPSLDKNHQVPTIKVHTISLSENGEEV

[4] = target: T3, Alpha-2A adrenergic receptor (Homo sapiens) (UniProt P08913); test: ALPHA2A/HU Eurofins SafetyScreen44 (BI); settings: Compound concentration 10.0 uM
T3 sequence (whole entry): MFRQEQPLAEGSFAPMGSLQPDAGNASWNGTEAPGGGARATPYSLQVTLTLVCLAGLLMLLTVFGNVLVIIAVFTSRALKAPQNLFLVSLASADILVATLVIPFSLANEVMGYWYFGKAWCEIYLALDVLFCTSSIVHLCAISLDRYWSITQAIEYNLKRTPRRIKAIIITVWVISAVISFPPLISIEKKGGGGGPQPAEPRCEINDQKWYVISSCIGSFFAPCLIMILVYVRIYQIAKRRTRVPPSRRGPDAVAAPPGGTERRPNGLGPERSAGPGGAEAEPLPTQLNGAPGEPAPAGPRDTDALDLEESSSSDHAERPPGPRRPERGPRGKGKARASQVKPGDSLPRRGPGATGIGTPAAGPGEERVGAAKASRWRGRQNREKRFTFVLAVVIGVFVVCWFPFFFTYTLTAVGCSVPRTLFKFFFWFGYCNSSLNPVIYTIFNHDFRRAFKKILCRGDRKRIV

[5] = target: Androgen receptor (Homo sapiens) (UniProt P10275); test: ANDROGEN/H Eurofins SafetyScreen44 (BI); settings: Compound concentration 10.0 uM
Chain of Androgen receptor (Homo sapiens) (P10275 whole entry): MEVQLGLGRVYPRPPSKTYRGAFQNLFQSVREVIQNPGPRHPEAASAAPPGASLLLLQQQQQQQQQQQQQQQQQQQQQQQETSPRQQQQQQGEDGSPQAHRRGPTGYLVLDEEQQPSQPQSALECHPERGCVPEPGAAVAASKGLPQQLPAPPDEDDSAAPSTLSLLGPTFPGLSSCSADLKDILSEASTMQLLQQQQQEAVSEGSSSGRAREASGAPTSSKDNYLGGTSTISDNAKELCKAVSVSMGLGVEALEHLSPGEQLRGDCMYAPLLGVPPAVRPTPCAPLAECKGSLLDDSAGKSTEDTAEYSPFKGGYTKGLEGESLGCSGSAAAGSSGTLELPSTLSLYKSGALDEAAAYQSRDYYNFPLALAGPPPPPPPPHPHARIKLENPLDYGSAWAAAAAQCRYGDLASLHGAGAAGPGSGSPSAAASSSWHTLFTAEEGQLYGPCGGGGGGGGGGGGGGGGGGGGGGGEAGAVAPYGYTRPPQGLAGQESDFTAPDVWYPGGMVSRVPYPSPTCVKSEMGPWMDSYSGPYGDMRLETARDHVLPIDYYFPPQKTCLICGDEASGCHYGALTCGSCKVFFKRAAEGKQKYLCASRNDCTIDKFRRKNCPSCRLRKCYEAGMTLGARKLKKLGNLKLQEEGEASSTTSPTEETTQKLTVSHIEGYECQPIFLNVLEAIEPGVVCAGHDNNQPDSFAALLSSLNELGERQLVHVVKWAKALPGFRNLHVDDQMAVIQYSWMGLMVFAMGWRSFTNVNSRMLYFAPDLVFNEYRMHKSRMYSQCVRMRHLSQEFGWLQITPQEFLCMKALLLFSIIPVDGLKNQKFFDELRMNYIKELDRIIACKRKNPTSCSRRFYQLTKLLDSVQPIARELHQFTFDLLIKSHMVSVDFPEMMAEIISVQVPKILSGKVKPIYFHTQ

[6] = target: Beta-2 adrenergic receptor (Homo sapiens) (UniProt P07550); test: BETA2/HUM Eurofins SafetyScreen44 (BI); settings: filed as antagonist, Compound concentration 10.0 uM
Chain of Beta-2 adrenergic receptor (Homo sapiens) (P07550 whole entry, looked up): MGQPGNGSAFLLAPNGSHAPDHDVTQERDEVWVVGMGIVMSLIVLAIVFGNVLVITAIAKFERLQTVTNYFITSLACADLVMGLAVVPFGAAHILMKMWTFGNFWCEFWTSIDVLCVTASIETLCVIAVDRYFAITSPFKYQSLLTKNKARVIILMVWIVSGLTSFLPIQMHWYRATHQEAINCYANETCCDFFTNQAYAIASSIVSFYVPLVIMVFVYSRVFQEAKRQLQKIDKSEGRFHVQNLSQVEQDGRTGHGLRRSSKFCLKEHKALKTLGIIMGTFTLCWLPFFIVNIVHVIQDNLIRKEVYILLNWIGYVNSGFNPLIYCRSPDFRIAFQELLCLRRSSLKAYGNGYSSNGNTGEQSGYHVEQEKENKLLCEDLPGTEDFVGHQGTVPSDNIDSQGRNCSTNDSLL

[7] = target: Sodium-dependent dopamine transporter (Homo sapiens) (UniProt Q01959); test: DATRANS/HUM Eurofins SafetyScreen44 (BI); settings: Compound concentration 10.0 uM
[8] = target: Glucocorticoid receptor (Homo sapiens) (UniProt P04150); test: GCORTICOID/H Eurofins SafetyScreen44 (BI); settings: Compound concentration 10.0 uM
[9] = target: Muscarinic acetylcholine receptor M3 (Homo sapiens) (UniProt P20309); test: M3/H Eurofins SafetyScreen44 (BI); settings: Compound concentration 10.0 uM
[10] = target: Glutamate NMDA receptor (Rattus norvegicus) (UniProt P35439+Q00959+Q00960+Q00961+Q62645+Q8VHN2+Q9R1M7); test: NMDA/R Eurofins SafetyScreen44 (BI); assay type: protein-complex assay; settings: Compound concentration 10.0 uM
[11] = target: cGMP-inhibited 3',5'-cyclic phosphodiesterase 3A (Homo sapiens) (UniProt Q14432); test: PDE3A Eurofins SafetyScreen44 (BI); settings: Compound concentration 10.0 uM
[12] = target: 3',5'-cyclic-AMP phosphodiesterase 4D (Homo sapiens) (UniProt Q08499); test: PDE4D2 Eurofins SafetyScreen44 (BI); settings: Compound concentration 10.0 uM
[13] = target: 5-hydroxytryptamine receptor 2B (Homo sapiens) (UniProt P41595); settings: Compound concentration 10.0 uM
Chain of 5-hydroxytryptamine receptor 2B (Homo sapiens) (P41595 whole entry): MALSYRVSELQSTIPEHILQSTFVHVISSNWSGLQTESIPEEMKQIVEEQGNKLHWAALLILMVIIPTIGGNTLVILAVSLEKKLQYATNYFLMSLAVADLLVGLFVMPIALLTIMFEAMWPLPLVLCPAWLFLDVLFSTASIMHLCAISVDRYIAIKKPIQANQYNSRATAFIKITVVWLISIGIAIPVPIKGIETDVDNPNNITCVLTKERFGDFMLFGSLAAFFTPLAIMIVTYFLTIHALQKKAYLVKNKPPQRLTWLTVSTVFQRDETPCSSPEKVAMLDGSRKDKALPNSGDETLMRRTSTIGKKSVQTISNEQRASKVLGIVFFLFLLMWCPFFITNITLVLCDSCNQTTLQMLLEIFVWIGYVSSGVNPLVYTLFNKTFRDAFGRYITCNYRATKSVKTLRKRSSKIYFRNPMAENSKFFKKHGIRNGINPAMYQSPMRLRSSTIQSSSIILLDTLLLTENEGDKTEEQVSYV

[14] = target: D(2) dopamine receptor (Homo sapiens) (UniProt P14416); settings: Compound concentration 10.0 uM
[15] = target: Sodium-dependent serotonin transporter (Homo sapiens) (UniProt P31645); settings: Compound concentration 10.0 uM
Chain of Sodium-dependent serotonin transporter (Homo sapiens) (P31645 whole entry, looked up): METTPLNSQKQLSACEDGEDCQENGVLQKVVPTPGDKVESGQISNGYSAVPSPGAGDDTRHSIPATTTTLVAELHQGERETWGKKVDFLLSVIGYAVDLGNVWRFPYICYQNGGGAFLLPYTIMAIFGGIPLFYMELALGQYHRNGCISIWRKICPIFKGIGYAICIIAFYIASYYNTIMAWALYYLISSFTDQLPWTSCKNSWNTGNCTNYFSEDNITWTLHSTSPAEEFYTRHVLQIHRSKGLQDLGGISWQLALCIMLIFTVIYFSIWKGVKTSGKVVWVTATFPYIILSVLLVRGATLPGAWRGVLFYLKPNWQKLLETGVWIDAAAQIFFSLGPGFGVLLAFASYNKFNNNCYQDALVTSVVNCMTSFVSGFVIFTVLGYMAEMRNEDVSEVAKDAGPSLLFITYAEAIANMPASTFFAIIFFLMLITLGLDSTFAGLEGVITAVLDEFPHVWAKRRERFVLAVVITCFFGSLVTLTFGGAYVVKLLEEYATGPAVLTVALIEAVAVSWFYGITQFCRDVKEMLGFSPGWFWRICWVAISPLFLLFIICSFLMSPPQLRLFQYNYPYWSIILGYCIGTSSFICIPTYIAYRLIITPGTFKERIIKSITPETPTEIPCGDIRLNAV

[16] = target: Mu-type opioid receptor (Homo sapiens) (UniProt P35372); settings: Compound concentration 10.0 uM
Chain of Mu-type opioid receptor (Homo sapiens) (P35372 whole entry): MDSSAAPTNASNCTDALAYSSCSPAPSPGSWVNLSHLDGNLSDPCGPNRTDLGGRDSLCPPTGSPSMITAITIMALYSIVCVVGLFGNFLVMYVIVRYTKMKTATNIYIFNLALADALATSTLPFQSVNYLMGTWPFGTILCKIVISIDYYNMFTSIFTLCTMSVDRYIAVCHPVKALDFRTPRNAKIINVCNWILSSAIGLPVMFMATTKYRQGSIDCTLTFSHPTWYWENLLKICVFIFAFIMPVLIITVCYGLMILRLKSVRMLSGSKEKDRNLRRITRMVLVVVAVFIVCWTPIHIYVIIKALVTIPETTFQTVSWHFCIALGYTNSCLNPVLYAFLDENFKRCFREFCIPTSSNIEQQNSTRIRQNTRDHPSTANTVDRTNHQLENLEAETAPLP

[17] = target: Histamine H4 receptor (Homo sapiens) (UniProt Q9H3N8); settings: Compound concentration 10.0 uM
Chain of Histamine H4 receptor (Homo sapiens) (Q9H3N8 whole entry): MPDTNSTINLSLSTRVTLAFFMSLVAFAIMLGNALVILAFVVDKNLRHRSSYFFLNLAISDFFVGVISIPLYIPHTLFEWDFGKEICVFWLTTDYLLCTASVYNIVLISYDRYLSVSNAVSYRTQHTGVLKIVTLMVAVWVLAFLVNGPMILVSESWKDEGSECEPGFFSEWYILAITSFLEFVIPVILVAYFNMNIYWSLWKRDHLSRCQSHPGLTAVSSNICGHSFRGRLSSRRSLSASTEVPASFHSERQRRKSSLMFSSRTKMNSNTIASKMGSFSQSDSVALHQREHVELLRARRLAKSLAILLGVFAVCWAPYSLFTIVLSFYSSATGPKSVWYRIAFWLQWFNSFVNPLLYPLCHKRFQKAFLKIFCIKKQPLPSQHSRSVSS

[18] = target: T2, Alpha-1A adrenergic receptor (Homo sapiens); settings: Compound concentration 10.0 uM
[19] = target: Alpha-2B adrenergic receptor (Homo sapiens) (UniProt P18089); settings: Compound concentration 10.0 uM
Chain of Alpha-2B adrenergic receptor (Homo sapiens) (P18089 whole entry): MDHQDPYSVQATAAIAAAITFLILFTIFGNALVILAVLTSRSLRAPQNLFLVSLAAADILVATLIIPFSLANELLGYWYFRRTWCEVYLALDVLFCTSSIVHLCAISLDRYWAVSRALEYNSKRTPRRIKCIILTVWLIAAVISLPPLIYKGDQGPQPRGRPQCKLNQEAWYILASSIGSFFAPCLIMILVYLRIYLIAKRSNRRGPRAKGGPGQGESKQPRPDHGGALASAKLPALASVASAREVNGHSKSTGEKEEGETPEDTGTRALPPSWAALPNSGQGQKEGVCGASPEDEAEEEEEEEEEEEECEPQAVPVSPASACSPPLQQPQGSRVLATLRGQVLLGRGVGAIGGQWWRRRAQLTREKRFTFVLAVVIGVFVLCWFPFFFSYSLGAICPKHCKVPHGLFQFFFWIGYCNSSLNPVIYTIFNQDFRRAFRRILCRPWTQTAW

[20] = target: Muscarinic acetylcholine receptor M4 (Homo sapiens) (UniProt P08173); settings: Compound concentration 10.0 uM
Chain of Muscarinic acetylcholine receptor M4 (Homo sapiens) (P08173 whole entry): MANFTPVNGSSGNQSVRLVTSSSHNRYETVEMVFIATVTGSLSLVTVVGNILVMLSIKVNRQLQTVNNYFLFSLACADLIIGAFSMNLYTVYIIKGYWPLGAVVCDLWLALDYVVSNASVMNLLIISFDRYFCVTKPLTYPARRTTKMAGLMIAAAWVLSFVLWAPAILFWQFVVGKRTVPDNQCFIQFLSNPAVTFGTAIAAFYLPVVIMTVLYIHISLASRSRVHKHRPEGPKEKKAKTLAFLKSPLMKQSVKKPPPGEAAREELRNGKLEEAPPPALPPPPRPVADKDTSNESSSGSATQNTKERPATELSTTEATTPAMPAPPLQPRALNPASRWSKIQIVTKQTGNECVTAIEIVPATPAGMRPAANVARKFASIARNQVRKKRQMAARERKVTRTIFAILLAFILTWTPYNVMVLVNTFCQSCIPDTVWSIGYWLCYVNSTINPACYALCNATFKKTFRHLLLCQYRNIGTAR

[21] = target: Beta-3 adrenergic receptor (Homo sapiens) (UniProt P13945); settings: Compound concentration 10.0 uM
Chain of Beta-3 adrenergic receptor (Homo sapiens) (P13945 whole entry, looked up): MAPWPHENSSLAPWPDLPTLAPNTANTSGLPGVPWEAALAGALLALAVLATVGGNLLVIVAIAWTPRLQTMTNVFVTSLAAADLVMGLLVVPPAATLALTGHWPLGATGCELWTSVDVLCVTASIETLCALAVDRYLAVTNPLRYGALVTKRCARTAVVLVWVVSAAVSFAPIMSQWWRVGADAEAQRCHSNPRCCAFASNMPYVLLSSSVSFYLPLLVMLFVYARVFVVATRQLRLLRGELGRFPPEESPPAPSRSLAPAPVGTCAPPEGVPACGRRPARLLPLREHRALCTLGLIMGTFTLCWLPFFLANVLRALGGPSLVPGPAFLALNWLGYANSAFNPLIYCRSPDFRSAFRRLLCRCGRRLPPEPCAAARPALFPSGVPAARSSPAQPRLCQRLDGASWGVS

Rattus norvegicus = species: Rattus norvegicus; settings: Compound concentration 10.0 uM
[22] = target: Sigma non-opioid intracellular receptor 1 (Homo sapiens) (UniProt Q99720); settings: Compound concentration 10.0 uM
Chain of Sigma non-opioid intracellular receptor 1 (Homo sapiens) (Q99720 whole entry): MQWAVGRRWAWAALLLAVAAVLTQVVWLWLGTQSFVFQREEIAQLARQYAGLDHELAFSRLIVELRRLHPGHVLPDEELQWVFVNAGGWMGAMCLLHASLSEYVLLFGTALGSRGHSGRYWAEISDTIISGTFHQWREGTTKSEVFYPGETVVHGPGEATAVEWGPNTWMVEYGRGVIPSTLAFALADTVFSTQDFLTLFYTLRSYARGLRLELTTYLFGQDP

[23] = target: 17-beta-hydroxysteroid dehydrogenase 13 (Mus musculus, UniProt Q8VCR2); test: Enzymatic assay (mHSD17B13); assay type: functional
hERG (KCNH2) = hERG (KCNH2) (Homo sapiens, UniProt Q12809); test: HERG_DOFETILIDE Eurofins SafetyScreen44 (BI); settings: probe [3H]dofetilide, compound concentration 10 uM, read-out: % Ctrl
MAO-A = MAO-A (Rattus norvegicus, UniProt P21396); test: MAO-A_ANTAG Eurofins SafetyScreen44 (BI); set-up: scale not given: the % may be the effect or the level left; settings: compound concentration 10 uM, read-out: % Ctrl
[24] = target: Beta-2 adrenergic receptor (Homo sapiens) (UniProt P07550); settings: Compound concentration 10.0 uM

Structure (SMILES)	residual activity [1]	residual activity [2]	residual activity [3]	residual activity [4]	residual activity [5]	residual activity [6]	residual activity [7]	residual activity [8]	residual activity [9]	residual activity [10]	residual activity [11]	residual activity [12]	inhibition [13]	inhibition [15]	inhibition [16]	inhibition [17]	inhibition [18]	inhibition [19]	inhibition [20]	inhibition [21]	further results
CCn1c(=O)c(C)cn(Cc2nnc(-c3ccc(F)c(O)c3F)s2)c1=O	49%	101%	107%	113%	102%	99%	82%	96%	96%	104%	94%	68%	-8.82%	-3.65%	-0.02%	3.99%	-6.48%	5.03%	-2.34%	-4.71%	inhibition [14]: -2.66%; inhibition (Rattus norvegicus): 23%; inhibition [22]: 17.2%
CCn1c(=O)c(C)cn(Cc2nnc(-c3ccc(F)c(OC)c3F)s2)c1=O	44%	94%	88%	87%	103%	105%	86%	88%	107%	103%	93%	64%	28.5%	-7.45%	12.9%	-9.96%	-8.57%	2.49%	0.65%	6.74%	Ki [23]: > 10 µM (not active); activity at 10 µM (hERG (KCNH2)): 100% (not active); activity at 10 µM (MAO-A): 88% (not active); inhibition [24]: 6.43%; inhibition (Rattus norvegicus): -8.73%; inhibition [22]: 16.4%
